Values joined by “and” are separate entries in the source; they are usually repeats but may differ in a detail not shown here. Equal entries are not always repeated.
Key:
Type in all cases: in vivo
[1] = biological target: T1, dopamine transporter (Homo sapiens, UniProt Q01959); assay: Patient classification from Datscan clinical trial data using SBR plus L/R asymmetry, versus clinical diagnosis
T1 construct: from tissue; host or cells: striatum of living normal human subjects (in vivo SPECT imaging, ENCDAT and PPMI databases)
T1 sequence (Q01959 whole entry): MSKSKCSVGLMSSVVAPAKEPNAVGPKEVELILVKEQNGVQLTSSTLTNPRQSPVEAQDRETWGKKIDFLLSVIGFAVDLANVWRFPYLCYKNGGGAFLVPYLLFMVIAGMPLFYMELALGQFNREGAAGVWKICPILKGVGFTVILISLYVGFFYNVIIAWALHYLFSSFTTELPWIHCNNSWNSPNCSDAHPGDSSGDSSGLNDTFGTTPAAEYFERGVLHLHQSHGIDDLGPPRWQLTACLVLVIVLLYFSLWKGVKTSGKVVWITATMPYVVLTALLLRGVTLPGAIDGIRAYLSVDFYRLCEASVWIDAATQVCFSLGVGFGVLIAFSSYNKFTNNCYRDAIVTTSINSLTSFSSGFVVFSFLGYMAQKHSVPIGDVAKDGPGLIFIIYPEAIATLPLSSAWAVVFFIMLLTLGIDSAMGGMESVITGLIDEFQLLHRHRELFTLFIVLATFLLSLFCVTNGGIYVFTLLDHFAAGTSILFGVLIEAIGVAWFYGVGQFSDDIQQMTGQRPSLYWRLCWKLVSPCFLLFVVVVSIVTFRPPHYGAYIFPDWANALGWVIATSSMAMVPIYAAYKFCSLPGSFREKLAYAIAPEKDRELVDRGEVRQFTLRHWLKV
Protocol: The 104 patient data set from Example 4 was analysed using SBR together with the L/R asymmetry of the present invention.

[2] = biological target: T1, dopamine transporter; assay: Patient classification from Datscan clinical trial data using SBR only, versus clinical diagnosis
Protocol: The data from two GE Healthcare Ltd clinical trials of Datscan™: • (i) comparing PD and ET; • (ii) clinically uncertain PD; 104 patients in total were analysed using SBR calculation only. Each determination was compared with the patient determination based on clinical symptoms.
This gives a sensitivity of 71%, specificity of 96% and accuracy of 82% for the SBR technique. The clinical diagnosis was assumed to be the ‘true’ diagnosis, and sensitivity and specificity can then be calculated. Sensitivity=100×True Positives/(True Positives+False Negatives)=100×42/59=71%. Specificity=100×True Negatives/(True Negatives+False Positives)=100×43/45=96%. Accuracy=100×(True Positives+True Negatives)/Population=100×(42+43)/104=82%.

[3] = biological target: T1, dopamine transporter; assay: Striatum right:left ratio from DaTSCAN SBR data of normal subjects, ENCDAT database
Excerpt: Using the method of the present invention, the data from Example 1 was used to calculate a striatum right:left ratio:
Table 3 below uses SBR data for normal subjects from the ENC DAT database. Three subjects from each of five different sites are shown, but the overall average is based on data from 11 sites: […]

[4] = biological target: T1, dopamine transporter; assay: Striatal binding ratio (SBR) from DaTSCAN images of normal subjects, ENCDAT database; conditions: mean ±1 SD
Protocol: The European Association of Nuclear Medicine RESEARCH4LIFE© initiative (“EARL”) has been compiling a database of DaTSCAN images of normal human subjects since 2007 (see http://earl.eanm.org/cms/website.php?id=/en/projects/enc-dat.htm). The ENCDAT database includes 150 normal subjects—with data from a range of camera types. SBR was calculated for the 150 normal subjects (Group A):
[formula] • where: • SBR=specific binding ratio or striatum binding ratio, • ROI=region of interest. Brain imaging data for n=37 normal subjects acquired on GE cameras in the ENCDAT database was used for the calculation of SBR (Group B). SBR for an illustrative patient from the ENCDAT database is also shown: […]

[5] = biological target: T1, dopamine transporter; assay: Normal database (PPMI, ENCDAT) DaTSCAN scans, SBR method averaged per decade of life; conditions: normal subjects
Protocol: Two databases of scans of DaTSCAN™ (GE Healthcare Ltd) normal human subjects were evaluated using: • (i) the SBR method of the prior art (see Example 1), with the occipital cortex as the reference region; • (ii) the L/R ratio method of the present invention. The PPMI database was of 122 subjects (age range 31-84; 62% male 38% female). The ENCDAT database was of 122 subjects (age range 20-82; 52% male 48% female). The data from all subjects in each decade of life (20 s, 30 s etc) were averaged.

[6] = 104 patients, SBR with L/R asymmetry
[7] = SBR plus asymmetry, clinical diagnosis as truth
[8] = SBR technique, clinical diagnosis as truth
[9] = WHOLE mean, overall average of 11 sites
[10] = individual normal subjects, three per site, sites 1-5
[11] = Normal A: 150 normal subjects, range of camera types
[12] = Normal B: n=37 normal subjects, GE cameras

COC(=O)[C@H]1[C@@H](c2ccc([123I])cc2)C[C@@H]2CC[C@H]1N2CCCF [DaTSCAN, ^123I-ioflupane]
number of subjects: SBR + Asymmetry Abnormal, Clinical Abnormal [1, 6]: 54 | number of subjects: SBR + Asymmetry Abnormal, Clinical Normal [1, 6]: 11 | number of subjects: SBR + Asymmetry Normal, Clinical Abnormal [1, 6]: 5 | number of subjects: SBR + Asymmetry Normal, Clinical Normal [1, 6]: 34 | accuracy [1, 7]: 85% | sensitivity [1, 7]: 92% | specificity [1, 7]: 76% | number of subjects: SBR Abnormal, Clinical Abnormal ([2]; 104 patients, SBR only): 42 | number of subjects: SBR Abnormal, Clinical Normal ([2]; 104 patients, SBR only): 2 | number of subjects: SBR Normal, Clinical Abnormal ([2]; 104 patients, SBR only): 17 | number of subjects: SBR Normal, Clinical Normal ([2]; 104 patients, SBR only): 43 | accuracy [2, 8]: 82% | sensitivity [2, 8]: 71% | specificity [2, 8]: 96% | SBR left, normal range ([3]; Normal range (+/-1 SD)): 1.79-3.05 | SBR right, normal range ([3]; Normal range (+/-1 SD)): 1.78-3.04 | Striatum Right:left, normal range ([3]; Normal range (+/-1 SD)): 0.96-1.04 | Striatum Right:left ([3]; Normal subjects, mean +/-1 SD): 1.00 +/− 0.04 | Anterior putamen R:L ratio [3, 9]: 1.00 | Caudate R:L ratio [3, 9]: 0.99 | Posterior Putamen R:L ratio [3, 9]: 1.01 | Putamen R:L ratio [3, 9]: 1.01 | SBR Striatum L [3, 9]: 2.88 | SBR Striatum R [3, 9]: 2.88 | Striatum R:L ratio [3, 9]: 1.00 | Anterior putamen R:L ratio [3, 10]: 1.03 (2×) and 1.00 (4×) and 0.91 and 0.98 and 0.97 and 1.01 (3×) and 1.06 and 0.99 and 0.96 | Caudate R:L ratio [3, 10]: 0.98 and 1.02 and 0.97 and 1.05 (3×) and 0.89 and 1.03 (3×) and 1.15 and 1.11 and 1.07 and 0.94 and 1.01 | Posterior Putamen R:L ratio [3, 10]: 1.03 and 1.08 and 1.18 (2×) and 1.00 and 1.05 and 0.99 and 1.20 and 1.07 (3×) and 1.02 and 1.11 (2×) and 0.93 | Putamen R:L ratio [3, 10]: 1.03 (2×) and 1.02 and 1.04 (2×) and 1.05 (2×) and 0.93 and 1.00 (3×) and 0.98 and 1.06 and 1.07 and 0.99 | SBR Striatum L [3, 10]: 3.25 and 2.58 and 3.11 and 2.60 and 2.94 and 1.88 and 4.03 and 2.33 and 3.28 and 2.62 and 2.37 and 2.50 and 4.79 and 3.22 and 3.09 | SBR Striatum R [3, 10]: 3.29 and 2.65 and 3.16 and 2.74 and 2.69 and 1.91 and 4.06 and 2.56 and 3.57 and 2.70 and 2.37 and 2.62 and 4.93 and 3.23 and 3.15 | Striatum R:L ratio [3, 10]: 1.01 (2×) and 1.03 (3×) and 1.02 (3×) and 1.05 (2×) and 0.92 and 1.10 and 1.09 and 1.00 (2×) | SBR Striatum left [4, 11]: 2.88 ± 0.69 and 2.88 +/− 0.69 | SBR Striatum right [4, 11]: 2.88 ± 0.65 and 2.88 +/− 0.65 | SBR Striatum left [4, 12]: 2.42 +/− 0.63 | SBR Striatum right [4, 12]: 2.41 +/− 0.63 | SBR ([5]; eighties age group): about 2.2 | SBR ([5]; thirties age group): about 3.2
